Where a SMILES comes first, the peptide text is derived from it. [ ]: non-standard residue; d: D form. The star is where a group is joined. X1 = Cc1ccc(Nc2ncc3c(n2)N(C)C(=O)N(c2cc(C(=O)*)ccc2C)C3)cn1; Aib = CC(C)(N)C(=O)O
Assays:
c-Src = target: T1, c-Src (Homo sapiens, UniProt P12931); assay: In vitro kinase assay (IC50); type: biochemical
T1 construct: purchased Reaction Biology Corp
Experimental: (§1) Full panel kinase profiling and kinase IC50 measurement were performed by using Reaction Biology Corp. (San Diego, USA).

p38a = target: T2, p38a (Homo sapiens, UniProt Q16539); assay: In vitro kinase assay (IC50); type: biochemical
T2 construct: purchased Reaction Biology Corp
Experimental: as §1

Abl1 = target: T3, Abl1 (Homo sapiens, UniProt P00519); assay: In vitro kinase assay (IC50); type: biochemical
T3 construct: purchased Reaction Biology Corp
Experimental: as §1

Lck [1] = target: T4, Lck (Homo sapiens, UniProt P06239); assay: In vitro kinase assay (IC50); type: biochemical
T4 construct: purchased Reaction Biology Corp
Experimental: as §1

Lck [2] = target: T4, Lck; assay: Biochemical IC50 on Lck at Km and 1 mM ATP
Experimental: as §1

T1 sequence (P12931 whole entry): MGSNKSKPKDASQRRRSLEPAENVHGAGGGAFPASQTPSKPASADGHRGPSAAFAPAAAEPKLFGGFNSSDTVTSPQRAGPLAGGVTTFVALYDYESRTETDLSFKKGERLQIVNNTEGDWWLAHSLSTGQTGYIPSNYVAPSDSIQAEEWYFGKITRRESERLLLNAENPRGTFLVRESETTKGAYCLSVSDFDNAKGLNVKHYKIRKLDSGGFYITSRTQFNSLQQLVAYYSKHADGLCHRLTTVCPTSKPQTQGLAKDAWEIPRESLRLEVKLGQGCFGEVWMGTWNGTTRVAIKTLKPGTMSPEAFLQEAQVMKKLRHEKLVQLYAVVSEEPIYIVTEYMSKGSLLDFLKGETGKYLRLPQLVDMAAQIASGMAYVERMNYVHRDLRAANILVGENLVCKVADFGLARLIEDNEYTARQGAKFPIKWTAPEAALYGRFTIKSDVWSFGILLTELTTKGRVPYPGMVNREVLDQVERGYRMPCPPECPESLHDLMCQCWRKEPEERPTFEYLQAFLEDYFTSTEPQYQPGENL
T2 sequence (Q16539 whole entry): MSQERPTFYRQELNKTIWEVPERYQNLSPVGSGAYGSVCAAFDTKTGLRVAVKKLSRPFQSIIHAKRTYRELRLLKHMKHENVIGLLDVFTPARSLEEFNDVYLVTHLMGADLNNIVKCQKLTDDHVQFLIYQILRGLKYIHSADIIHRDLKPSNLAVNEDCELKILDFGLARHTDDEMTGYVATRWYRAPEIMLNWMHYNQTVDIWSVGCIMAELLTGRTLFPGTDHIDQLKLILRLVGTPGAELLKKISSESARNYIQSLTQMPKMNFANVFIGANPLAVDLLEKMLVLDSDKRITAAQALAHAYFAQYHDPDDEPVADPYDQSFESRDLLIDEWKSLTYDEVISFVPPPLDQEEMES
T3 sequence (P00519 whole entry): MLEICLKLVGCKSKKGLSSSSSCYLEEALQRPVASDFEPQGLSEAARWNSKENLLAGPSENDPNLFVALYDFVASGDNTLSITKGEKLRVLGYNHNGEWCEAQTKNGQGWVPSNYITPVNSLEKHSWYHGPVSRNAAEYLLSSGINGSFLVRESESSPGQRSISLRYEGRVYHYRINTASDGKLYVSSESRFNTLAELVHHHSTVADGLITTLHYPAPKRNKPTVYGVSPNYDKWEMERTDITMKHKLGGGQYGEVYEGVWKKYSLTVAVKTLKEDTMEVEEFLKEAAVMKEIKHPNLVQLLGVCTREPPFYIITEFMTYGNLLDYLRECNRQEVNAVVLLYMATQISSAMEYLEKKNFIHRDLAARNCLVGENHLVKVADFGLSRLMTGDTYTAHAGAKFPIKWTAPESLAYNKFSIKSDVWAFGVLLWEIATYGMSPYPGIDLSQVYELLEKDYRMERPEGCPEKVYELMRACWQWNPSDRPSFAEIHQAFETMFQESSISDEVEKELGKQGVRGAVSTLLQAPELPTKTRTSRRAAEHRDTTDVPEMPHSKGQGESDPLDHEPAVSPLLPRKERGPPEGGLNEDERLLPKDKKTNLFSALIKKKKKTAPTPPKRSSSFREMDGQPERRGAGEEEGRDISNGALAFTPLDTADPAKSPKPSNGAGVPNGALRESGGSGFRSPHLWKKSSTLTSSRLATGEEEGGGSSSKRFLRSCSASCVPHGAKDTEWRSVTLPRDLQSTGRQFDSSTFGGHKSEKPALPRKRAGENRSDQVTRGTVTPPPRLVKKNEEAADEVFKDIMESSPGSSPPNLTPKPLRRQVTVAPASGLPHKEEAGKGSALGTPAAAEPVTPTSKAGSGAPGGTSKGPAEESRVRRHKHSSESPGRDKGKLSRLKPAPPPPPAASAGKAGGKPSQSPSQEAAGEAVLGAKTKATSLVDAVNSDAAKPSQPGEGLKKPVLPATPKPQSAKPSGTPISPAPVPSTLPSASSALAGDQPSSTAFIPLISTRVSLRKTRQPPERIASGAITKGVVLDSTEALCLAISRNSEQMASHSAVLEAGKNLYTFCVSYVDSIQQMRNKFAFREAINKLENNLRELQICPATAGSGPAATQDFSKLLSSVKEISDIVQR
T4 sequence (P06239 whole entry): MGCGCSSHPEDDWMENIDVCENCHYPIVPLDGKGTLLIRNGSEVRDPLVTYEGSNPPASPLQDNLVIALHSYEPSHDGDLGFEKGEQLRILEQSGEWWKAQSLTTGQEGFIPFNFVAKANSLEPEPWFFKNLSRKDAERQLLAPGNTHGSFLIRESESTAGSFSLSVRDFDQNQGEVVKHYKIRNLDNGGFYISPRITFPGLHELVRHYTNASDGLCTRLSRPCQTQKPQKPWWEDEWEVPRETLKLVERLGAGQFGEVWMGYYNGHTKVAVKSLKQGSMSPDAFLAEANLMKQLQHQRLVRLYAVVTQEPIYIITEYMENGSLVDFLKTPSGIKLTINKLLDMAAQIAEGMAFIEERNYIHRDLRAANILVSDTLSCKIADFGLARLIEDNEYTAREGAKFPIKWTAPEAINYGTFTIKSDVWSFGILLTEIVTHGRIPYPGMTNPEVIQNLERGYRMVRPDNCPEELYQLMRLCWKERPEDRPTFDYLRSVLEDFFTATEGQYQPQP

Structure (SMILES) | IC50 (c-Src) | IC50 (p38a) | IC50 (Abl1) | IC50 (Lck [1]) | selectivity for Lck over c-Src (Lck [1]) | IC50 (Lck [2]; ATP conc. 14 µM (Km)) | IC50 (Lck [2]; ATP conc. 1 mM) | mode of inhibition (Lck [2]; IC50 at Km vs 1 mM ATP)
Cc1ccc(Nc2ncc3c(n2)N(C)C(=O)N(c2cc(C(=O)N[C@H](C(=O)N4CCC[C@@H]4C(=O)NC(C)(C)C(=O)N[C@@H](CC(C)C)C(=O)N(C)C)C(C)C)ccc2C)C3)cn1 [7b, (R)-N-(1-(((S)-1-(dimethylamino)-4-methyl-1-oxopentan-2-yl)amino)-2-methyl-1-oxopropan-2-yl)-1-((4-methyl-3-(1-methyl-7-((6-methylpyridin-3-yl)amino)-2-oxo-1,4-dihydropyrimido[4,5-d]pyrimidin-3(2H)-yl)benzoyl)-L-valyl)pyrrolidine-2-carboxamide] (X1-V[dP][Aib]L-NMe2) | 379 nM | 2050 nM | 317 nM | 174 nM |  |  |  | 
Cc1ccc(Nc2ncc3c(n2)N(C)C(=O)N(c2cc(NC(=O)c4ccc5c(c4)N(Cc4ccccc4)C(=O)[C@H](CC(C)C)N=C5c4ccccc4)ccc2C)C3)cn1 [11b, (S)-1-benzyl-3-isobutyl-N-(4-methyl-3-(1-methyl-7-((6-methylpyridin-3-yl)amino)-2-oxo-1,4-dihydropyrimido[4,5-d]pyrimidin-3(2H)-yl)phenyl)-2-oxo-5-phenyl-2,3-dihydro-1H-benzo[e][1,4]diazepine-8-carboxamide] | 410 nM | 3430 nM | 453 nM | 37.3 nM | over 10 fold | 510 nM | > 100000 nM | ATP competitive kinase inhibitors
COCCN1C(=O)[C@H](CC(C)C)N=C(c2ccccc2)c2ccc(C(=O)Nc3ccc(C)c(N4Cc5cnc(Nc6ccc(C)nc6)nc5N(C)C4=O)c3)cc21 [11n, (S)-3-isobutyl-1-(2-methoxyethyl)-N-(4-methyl-3-(1-methyl-7-((6-methylpyridin-3-yl)amino)-2-oxo-1,4-dihydropyrimido[4,5-d]pyrimidin-3(2H)-yl)phenyl)-2-oxo-5-phenyl-2,3-dihydro-1H-benzo[e][1,4]diazepine-8-carboxamide] | 48.6 nM |  |  | 16 nM |  |  |  | 
Cc1ccc(Nc2ncc3c(n2)N(C)C(=O)N(c2cc(NC(=O)c4ccc5c(c4)N(CC(=O)NCc4ccccc4)C(=O)[C@H](CC(C)C)N=C5c4ccccc4)ccc2C)C3)cn1 [11o, (S)-1-(2-(benzylamino)-2-oxoethyl)-3-isobutyl-N-(4-methyl-3-(1-methyl-7-((6-methylpyridin-3-yl)amino)-2-oxo-1,4-dihydropyrimido[4,5-d]pyrimidin-3(2H)-yl)phenyl)-2-oxo-5-phenyl-2,3-dihydro-1H-benzo[e][1,4]diazepine-8-carboxamide] | 87.5 nM |  |  | 27.8 nM |  |  |  | 
C=CCCC1=N[C@@H](CC(=O)Nc2ccc(C)c(N3Cc4cnc(Nc5ccc(C)nc5)nc4N(C)C3=O)c2)C(=O)N(Cc2ccccc2)c2ccccc21 [11q, (S)-2-(1-benzyl-5-(but-3-en-1-yl)-2-oxo-2,3-dihydro-1H-benzo[e][1,4]diazepin-3-yl)-N-(4-methyl-3-(1-methyl-7-((6-methylpyridin-3-yl)amino)-2-oxo-1,4-dihydropyrimido[4,5-d]pyrimidin-3(2H)-yl)phenyl)acetamide] | 24.8 nM |  |  | 17.9 nM |  |  |  | 

Compounds with a lower IC50 (c-Src), results first:

IC50 (c-Src) | IC50 (p38a) | IC50 (Abl1) | IC50 (Lck [1]) | Structure (SMILES) | selectivity for Lck over c-Src (Lck [1]) | IC50 (Lck [2]; ATP conc. 14 µM (Km)) | IC50 (Lck [2]; ATP conc. 1 mM) | mode of inhibition (Lck [2]; IC50 at Km vs 1 mM ATP)
20.4 nM | 1830 nM | 189 nM | 8.5 nM | Cc1ccc(Nc2ncc3c(n2)N(C)C(=O)N(c2cc(NC(=O)c4ccc5c(c4)NC(=O)[C@H](Cc4ccccc4)N=C5c4ccccc4)ccc2C)C3)cn1 [11a, (S)-3-benzyl-N-(4-methyl-3-(1-methyl-7-((6-methylpyridin-3-yl)amino)-2-oxo-1,4-dihydropyrimido[4,5-d]pyrimidin-3(2H)-yl)phenyl)-2-oxo-5-phenyl-2,3-dihydro-1H-benzo[e][1,4]diazepine-8-carboxamide] |  |  |  | 
2.84 nM | 14.9 nM | 4.64 nM | 1.17 nM | Cc1ccc(Nc2ncc3c(n2)N(C)C(=O)N(c2cc(NC(=O)c4ccc5c(c4)NC(=O)[C@H](C)N=C5c4ccccc4)ccc2C)C3)cn1 [11c, (S)-3-methyl-N-(4-methyl-3-(1-methyl-7-((6-methylpyridin-3-yl)amino)-2-oxo-1,4-dihydropyrimido[4,5-d]pyrimidin-3(2H)-yl)phenyl)-2-oxo-5-phenyl-2,3-dihydro-1H-benzo[e][1,4]diazepine-8-carboxamide] |  |  |  | 
15.2 nM | 101 nM | 24.1 nM | 3.42 nM | Cc1ccc(Nc2ncc3c(n2)N(C)C(=O)N(c2cc(NC(=O)c4ccc5c(c4)N(Cc4ccccc4)C(=O)[C@H](C)N=C5c4ccccc4)ccc2C)C3)cn1 [11d, (S)-1-benzyl-3-methyl-N-(4-methyl-3-(1-methyl-7-((6-methylpyridin-3-yl)amino)-2-oxo-1,4-dihydropyrimido[4,5-d]pyrimidin-3(2H)-yl)phenyl)-2-oxo-5-phenyl-2,3-dihydro-1H-benzo[e][1,4]diazepine-8-carboxamide] |  |  |  | 
12.8 nM | 250 nM | 55.2 nM | 10.7 nM | CC[C@@H](C)[C@H]1N=C(c2ccccc2)c2ccc(C(=O)Nc3ccc(C)c(N4Cc5cnc(Nc6ccc(C)nc6)nc5N(C)C4=O)c3)cc2NC1=O [11e, (R)-3-((R)-s-butyl)-N-(4-methyl-3-(1-methyl-7-((6-methylpyridin-3-yl)amino)-2-oxo-1,4-dihydropyrimido[4,5-d]pyrimidin-3(2H)-yl)phenyl)-2-oxo-5-phenyl-2,3-dihydro-1H-benzo[e][1,4]diazepine-8-carboxamide] |  |  |  | 
4.01 nM |  |  | 1.05 nM | CC1=N[C@@H](CC(C)C)C(=O)N(C)c2cc(C(=O)Nc3ccc(C)c(N4Cc5cnc(Nc6ccc(C)nc6)nc5N(C)C4=O)c3)ccc21 [11m, (S)-3-isobutyl-1,5-dimethyl-N-(4-methyl-3-(1-methyl-7-((6-methylpyridin-3-yl)amino)-2-oxo-1,4-dihydropyrimido[4,5-d]pyrimidin-3(2H)-yl)phenyl)-2-oxo-2,3-dihydro-1H-benzo[e][1,4]diazepine-8-carboxamide] |  |  |  | 
6.14 nM |  |  | 3.8 nM | C=CCCC1=N[C@@H](CC(=O)Nc2ccc(C)c(N3Cc4cnc(Nc5ccc(C)nc5)nc4N(C)C3=O)c2)C(=O)N(C)c2ccccc21 [11p, (S)-2-(5-(but-3-en-1-yl)-1-methyl-2-oxo-2,3-dihydro-1H-benzo[e][1,4]diazepin-3-yl)-N-(4-methyl-3-(1-methyl-7-((6-methylpyridin-3-yl)amino)-2-oxo-1,4-dihydropyrimido[4,5-d]pyrimidin-3(2H)-yl)phenyl)acetamide] |  |  |  | 

— PMC9067983, “Identification of highly selective type II kinase inhibitors with chiral peptidomimetic tails” (Journal of Enzyme Inhibition and Medicinal Chemistry, 2022)
